Source: US8877463B2, “Rhodanobacter ginsenosidimutans KCTC22231T-derived ginsenoside glycosidase, and use thereof” (Korea Research Institute of Bioscience and Biotechnology, priority 2009, dated 2014)

B1: Bgl3054: Rhodanobacter ginsenosidimutans KCTC22231T-derived ginsenoside glycosidase protein, 433 amino acids, SEQ ID NO. 2 (protein)
chain: GLGRRRASMMRGTPMTNPFPQDFLWGVATAGHQVEGNNVNSDVWFLEHLPGTIFAEPSGDAVDHYHRYREDIALIAGLGFTSYRFSVEWARIEPEEGHFSVAALDHYKRVLEACREHGLTPVVTFHHFASPLWLLRSGGWEGERTPELFARYCGRVMAHLGDLIGVACTLNEPNLPWLLESFGIGGEAPENRGKVPMWAAAAQRLGVDASTVAPFQFCSTEAGFNVKLAAHKAATEAIKAHRPDLRVGWTLANSDIQSVPGGEEIAAQVRRDVNERFLEASRGDDFVGIQTYGRTVYGPDGHAPAPEGVAVNQMGEEIYPQALEATIREAWRVAGIPVMVTENGLATEDDTQRVAYLRTAVDGVASCLADGIDVRGYIAWTAFDNFEWIFGYGPKFGLIAVDRSTQERTPKESARWLGNFARQQAPAEAPQPA
modifications: Bgl3054

Tests used:
[1] = test system: Bgl3054 ginsenoside glycosidase; assay: Specificity and selectivity of the enzyme for hydrolysis of ginsenosides (TLC, HPLC, NMR); format: biochemical, Rhodanobacter ginsenosidimutans KCTC22231T; settings: 0.2U enzyme, 50 mM sodium phosphate buffer pH 7.0, 0.1% (w/v) substrate, 37° C.
Procedure: In order to analyze the specificity and selectivity of the enzyme for the hydrolysis of glucose at the C-3 and C-20 positions of ginsenoside, ginsenoside Rb1, Rb2, Rc, Rd, and Rg3 were used as the substrates. Each reaction mixture containing 0.2U enzyme, 50 mM sodium phosphate buffer 0.1% (w/v) (pH 7.0), and the substrate was incubated at 37° C. Each sample was withdrawn at regular intervals, and an equal volume of water-saturated butanol was added to stop the reaction. The n-butanol fraction was evaporated to dryness, and residual material was dissolved in CH3OH and then examined by TLC HPLC or NMR analysis, and the results are shown in FIGS. 10, 11 and 12.

[2] = test system: ginsenoside glycosidase Bgl3054; assay: Reaction of expressed ginsenoside glycosidase with Rb1 solution, TLC analysis; format: biochemical, Rhodanobacter ginsenosidimutans KCTC22231T; settings: 1 mg/ml Rb1 solution in 50 mM sodium phosphate
Procedure: E.coil C41 (DE3) containing overexpressed plasmid was cultured in LB-ampicillin media at 37° C. when the OD value at 600 nm reached 0.6, and treated with 0.5 mM isopropyl-β-D-thiogalactopyranoside for 12 hours to induce protein expression. The bacterial cells were obtained by centrifugation at 4° C. and 5,000×g for 20 minutes. The cell pellet was resuspended in a solution (suspension) consisting of 50 mM sodium phosphate, 5 mM EDTA, and 1% Triton X-100 (pH 7.0) and subjected to ultrasonification. Ginsenoside glycosidase was completely hydrated without formation of insoluble precipitate, and ginsenoside glycosidase was reacted with 1 mg/ml Rb1 solution in 50 mM sodium phosphate, and TLC analysis was performed.

[3] = test system: Bgl3054; assay: Substrate preference with chromogenic ONP and PNP substrates; format: biochemical, Rhodanobacter ginsenosidimutans KCTC22231T; settings: 2.0 mM substrate, 37° C., 5 minutes; for activity of Bgl3054 for the substrate, rank order after ONP-β-D-fucopyranoside: descending order as listed: PNP-fucopyranoside, oNP-glucopyranoside, ONP-galactopyranoside, PNP-glucopyranoside, PNP-arabinopyranoside, PNP-galactopyranoside
Procedure: A free PNP-type substrate has a yellow color, but turns colorless when it binds with various sugars. The characteristics of glucosidase-type enzymes were analyzed using this principle. For example, PNPGlc is a colorless compound prepared by beta linkage of PNP and glucose, but free PNP catalyzed by beta-glucosidase has a yellow color. Thus, when a color change occurs by use of PNPGlc as a substrate, the enzyme is determined as a beta-glucosidase. In addition, when PNP-β-D-galactopyranoside is metabolized by an enzyme to produce yellow color, it is determined as β-D-galactopyranosidase. The color becomes darker according to characteristics and concentrations of the substrate, and thus it is possible to measure the concentration of the enzyme using a spectrometer.
1 activity unit was defined as the release of o-nitrophenol or p-nitrophenol per minute. For analysis of substrate preference, 2.0 mM chromogenic ONP and PNP (p-nitrophenyl) were used as the substrates, and incubated in 50 mM sodium phosphate buffer at 37° C. for 5 minutes.
The analyzed substrates (Sigma) were PNP-β-D-glucopyranoside, PNP-β-D-galactopyranoside, PNP-β-D-fucopyranoside, PNP-N-acetyl-β-D-glucosaminide, PNP-β-L-arabinopyranoside, PNP-β-D-mannopyronoside, PNP-β-D-xylopyranoside, PNP-β-D-glucopyranoside, PNP-β-L-arabinofuranoside, PNP-β-L-arabinopyranoside, PNP-β-D-rhamnopyranoside, PNP-β-D-mannopyranoside, and PNP-β-D-xylopyranoside, and o-nitrophenol[ONP]-β-D-glucopyranoside, ONP-β-D-galactopyranoside, ONP-β-D-fucopyranoside, and ONP-β-D-galactopyranoside.

[4] = target: ginsenoside glycosidase (Bgl3054) (Microbacterium sp. Gsoil167, UniProt L0ELG0); assay: Metal and chemical agent effects on enzymatic activity; format: biochemical, Rhodanobacter ginsenosidimutans KCTC22231T; settings: at the concentration of 10 mM or more; room temperature 30 minutes; pNPGlc substrate
Procedure: Specific activity was measured using 90 μl of 50 mM sodium phosphate buffer containing 2.0 mM pNPGlc (p-nitrophenyl-β-D-glucopyranoside; Sigma) at pH 7.0, and 10 μl of the diluted purified enzyme was treated at 37° C. for 20 minutes before initiation of the reaction, followed by incubation. 0.1 ml of 1 M Na2CO3 was treated for 5 minutes to terminate the reaction, and the concentration of p-nitrophenol was immediately measured at 405 nm. One unit of activity was defined as the amount of enzyme that released 1 μmol of p-nitrophenol per minute. Specific activity is expressed in units per milligram protein. Protein concentration was measured using a Bio-Rad protein staining reagent according to the protocol. All analyses were performed at least three times.
Ginsenoside glycosidase was incubated at room temperature for 30 minutes in 1 mM and 10 mM (final concentration) of ZnCl2, MnCl2, CaCl2, CoCl2, MgCl2, EDTA, NaCl, KCl, CuCl2, DTT, SDS, and mercaptoethanol, and pNPGlc (p-nitrophenyl-β-D-glucopyranoside; Sigma) was used as a substrate to measure the activity. The resulting value was represented as a percentage to the obtained activity upon lack of the compounds, and is shown in Table 1.

[5] = test system: ginsenoside glycosidase (Bgl3054); assay: Kinetic studies of pNPGlc hydrolysis (Km, Vmax); format: biochemical, Rhodanobacter ginsenosidimutans KCTC22231T; settings: pNPGlc 0.1 mM to 0.6 mM, 37° C., 20 minutes, absorbance 405 nm
Procedure: Further, kinetic studies were performed with freshly purified enzyme using pNPGlc (p-nitrophenyl-β-D-glucopyranoside; Sigma) at the concentrations of from 0.1 mM to 0.6 mM. Its absorbance at 405 nm was monitored at 37° C. for 20 minutes. The resulting data were used to determine Km and Vmax using the Enzyme Kinetics Program reported by Cleland.
Km and Vmax for the hydrolysis of pNPGlc (p-nitrophenyl-β-D-glucopyranoside; Sigma) by ginsenoside glycosidase were calculated using the Enzyme Kinetics Program reported by Cleland.

[6] = format: biochemical; settings: 2.0 mM pNPGlc, 50 mM buffers
Procedure: The effect of pH on the enzymatic activity was measured. 2.0 mM pNPGlc (p-nitrophenyl-β-D-glucopyranoside; Sigma) was used as a substrate, and pH was adjusted using the following buffer (50 mM).
pH range of 2 to 10: KCl-HCl (pH 2), glycine-HCl (pH 3), sodium acetic acid (pH 4 and 5), sodium phosphate (pH 6 and 7), Tris-HCl (pH 8 and 9) and glycine-sodium hydroxide (pH 10) Further, the effect of pH on the enzymatic stability was measured. The enzyme was incubated in each of the above mentioned buffers at 4° C. for 24 hours, and then pHPGlc was analyzed in 50 mM potassium buffer to measure the enzymatic stability according to pH change. Residue activity was analyzed according to a standard analytical procedure, and the results are shown in FIG. 6 as an activity probability obtained at the optimum pH.

[7] = format: biochemical; settings: 4-90° C., 2.0 mM pNPGlc, 50 mM potassium phosphate buffer, optimum pH, 5 minutes
Procedure: The effect of temperature on the enzymatic activity was measured. The temperature was adjusted between 4-90° C., and 2.0 mM pNPGlc (p-nitrophenyl-β-D-glucopyranoside; Sigma) was used to analyze the temperature-dependent activity in the 50 mM potassium phosphate buffer at the optimum pH for 5 minutes.
Further, the equivalent amount of enzyme was incubated in 50 mM potassium phosphate buffer within the same temperature range for 30 minutes to analyze the temperature stability. The sample was cooled in ice for 10 minutes, and the residual activity was measured according to a standard analytical procedure, and the results are shown in FIG. 7.

Row | Molecule | bioconversion of the ginsenoside substrate by the enzyme [1] | activity of Bgl3054 for the substrate, rank order after ONP-β-D-fucopyranoside [3] | further results
1 | CC(C)=CCC[C@](C)(O[C@@H]1O[C@H](CO[C@@H]2O[C@H](CO)[C@@H](O)[C@H](O)[C@H]2O)[C@@H](O)[C@H](O)[C@H]1O)[C@H]1CC[C@]2(C)[C@@H]1[C@H](O)C[C@@H]1[C@@]3(C)CC[C@H](O[C@@H]4O[C@H](CO)[C@@H](O)[C@H](O)[C@H]4O[C@@H]4O[C@H](CO)[C@@H](O)[C@H](O)[C@H]4O)C(C)(C)[C@@H]3CC[C@]12C [Ginsenoside Rb1, ginsenoside Rb1] | converted into Rd | – | conversion of ginsenoside by Bgl3054 (TLC) [2]: into F2 via Rd
2 | CC(C)=CCC[C@](C)(O[C@@H]1O[C@H](CO[C@@H]2O[C@@H](CO)[C@H](O)[C@H]2O)[C@@H](O)[C@H](O)[C@H]1O)[C@H]1CC[C@]2(C)[C@@H]1[C@H](O)C[C@@H]1[C@@]3(C)CC[C@H](O[C@@H]4O[C@H](CO)[C@@H](O)[C@H](O)[C@H]4O[C@@H]4O[C@H](CO)[C@@H](O)[C@H](O)[C@H]4O)C(C)(C)[C@@H]3CC[C@]12C [Ginsenoside Rc, ginsenoside Rc] | converted into compound Mc1 | – | –
3 | C[C@H]1O[C@@H](Oc2ccccc2[N+](=O)[O-])[C@H](O)[C@@H](O)[C@H]1O [ONP-β-D-fucopyranoside] | – | – | activity of Bgl3054 for the substrate (substrate preference) ([3]; 50 mM sodium phosphate buffer): highest activity
4 | O=[N+]([O-])c1ccccc1O[C@@H]1O[C@H](CO)[C@H](O)[C@H](O)[C@H]1O [ONP-β-D-galactopyranoside] | – | higher activity in this order | –
5 | C[C@H]1O[C@@H](Oc2ccc([N+](=O)[O-])cc2)[C@H](O)[C@@H](O)[C@H]1O [PNP-β-D-fucopyranoside] | – | higher activity in this order | –
6 | O=[N+]([O-])c1ccc(O[C@@H]2O[C@H](CO)[C@H](O)[C@H](O)[C@H]2O)cc1 [PNP-β-D-galactopyranoside] | – | higher activity in this order | –
7 | O=[N+]([O-])c1ccc(O[C@H]2OC[C@H](O)[C@H](O)[C@H]2O)cc1 [PNP-β-L-arabinopyranoside] | – | higher activity in this order | –
8 | CC(C)=CCC[C@](C)(O[C@@H]1O[C@H](CO[C@@H]2OC[C@H](O)[C@H](O)[C@H]2O)[C@@H](O)[C@H](O)[C@H]1O)[C@H]1CC[C@]2(C)[C@@H]1[C@H](O)C[C@@H]1[C@@]3(C)CC[C@H](O[C@@H]4O[C@H](CO)[C@@H](O)[C@H](O)[C@H]4O[C@@H]4O[C@H](CO)[C@@H](O)[C@H](O)[C@H]4O)C(C)(C)[C@@H]3CC[C@]12C [Rb2, ginsenoside Rb2] | converted into Rd | – | –
9 | CC(C)=CCC[C@](C)(O[C@@H]1O[C@H](CO)[C@@H](O)[C@H](O)[C@H]1O)[C@H]1CC[C@]2(C)[C@@H]1[C@H](O)C[C@@H]1[C@@]3(C)CC[C@H](O[C@@H]4O[C@H](CO)[C@@H](O)[C@H](O)[C@H]4O[C@@H]4O[C@H](CO)[C@@H](O)[C@H](O)[C@H]4O)C(C)(C)[C@@H]3CC[C@]12C [Rd, ginsenoside Rd] | converted into F2 | – | –
10 | CCCCCCCCCCCCOS(=O)(=O)[O-].[Na+] [SDS] | – | – | effect on the enzymatic activity [4]: inhibitory effect
11 | O=[N+]([O-])c1ccccc1O[C@@H]1O[C@H](CO)[C@@H](O)[C@H](O)[C@H]1O [oNP-β-D-glucopyranoside, o-nitrophenol[ONP]-β-D-glucopyranoside] | – | higher activity in this order | –
12 | O=[N+]([O-])c1ccc(O[C@@H]2O[C@H](CO)[C@@H](O)[C@H](O)[C@H]2O)cc1 [pNPGlc, p-nitrophenyl-β-D-glucopyranoside] | – | higher activity in this order | Vmax for the hydrolysis of pNPGlc by ginsenoside glycosidase [5]: 0.3177(±0.01654) mmol*min−1*mg of protein-1
13 | B1 | – | – | pH of highest activity [6]: 7.0; temperature of maximum activity [7]: 40-55 °C
